# According to ChEMBL document CHEMBL5512688 (J Med Chem, 2024):
# Key:
# A-427 [1] = assay: Induction of cell cycle arrest in human A-427 cells assessed as accumulation of cells at G0/G1 phase at 400 nM measured for 48 hrs by flow cytometry analysis (reference value: 49.5%); assay type: functional
# A-427 [2] = assay: Induction of cell cycle arrest in human A-427 cells assessed as accumulation of cells at S phase at 200 nM measured for 48 hrs by flow cytometry analysis (reference value: 4 %); assay type: functional
# A-427 [3] = assay: Induction of apoptosis in human A-427 cells assessed as late apoptotic cells at 200 nM measured for 48 hrs by Annexin V/PI double staining based flow cytometry analysis (reference value: 0.21%); assay type: functional
# Wee1-like protein kinase [4] = molecular target: T1, Wee1-like protein kinase (Homo sapiens, UniProt P30291); assay: Inhibition of human Wee1 (215 to 647 residues) using polyornithine/tyrosine (4:1) as substrate incubated for 5 mins in presence of ATP by micro beta plate reader analysis
# Target sequence in this assay (P30291 whole entry, the tested form may be a part): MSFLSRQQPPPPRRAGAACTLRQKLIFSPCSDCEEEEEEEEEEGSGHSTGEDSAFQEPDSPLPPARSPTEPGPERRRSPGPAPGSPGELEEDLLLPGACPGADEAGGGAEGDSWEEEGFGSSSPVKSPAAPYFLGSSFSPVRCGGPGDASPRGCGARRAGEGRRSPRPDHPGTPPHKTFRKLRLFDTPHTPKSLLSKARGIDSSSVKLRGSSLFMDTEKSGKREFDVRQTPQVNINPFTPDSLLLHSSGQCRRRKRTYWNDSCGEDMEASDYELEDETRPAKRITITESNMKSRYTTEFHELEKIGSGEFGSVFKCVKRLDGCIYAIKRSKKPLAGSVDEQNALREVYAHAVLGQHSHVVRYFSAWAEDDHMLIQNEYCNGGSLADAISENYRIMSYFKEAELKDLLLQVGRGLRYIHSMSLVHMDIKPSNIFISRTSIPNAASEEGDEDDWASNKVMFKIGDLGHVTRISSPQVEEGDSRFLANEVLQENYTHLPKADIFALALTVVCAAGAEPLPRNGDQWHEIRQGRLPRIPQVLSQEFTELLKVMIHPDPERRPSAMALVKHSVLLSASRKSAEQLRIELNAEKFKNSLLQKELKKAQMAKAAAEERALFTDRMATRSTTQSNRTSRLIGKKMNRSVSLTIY
# A-427 [5] = assay: Antiproliferative activity against human A-427 cells assessed as inhibition of cell growth incubated for 72 hrs by CCK-8 assay; assay type: functional, cell-based; conditions: A-427, 72 h
# A-427 [6] = assay: Induction of cell cycle arrest in human A-427 cells assessed as accumulation of cells at S phase at 400 nM measured for 48 hrs by flow cytometry analysis (reference value: 4 %); assay type: functional
# A-427 [7] = assay: Induction of cell cycle arrest in human A-427 cells assessed as accumulation of cells at G2/M phase at 50 nM measured for 48 hrs by flow cytometry analysis (reference value: 10.9 %); assay type: functional
# A-427 [8] = assay: Induction of cell cycle arrest in human A-427 cells assessed as accumulation of cells at S phase at 100 nM measured for 48 hrs by flow cytometry analysis (reference value: 4 %); assay type: functional
# [9] = Bioavailability in ICR mouse at 60 mg/kg, IG measured upto 24 hrs by LC-MS/MS analysis; assay type: ADME, organism-based; conditions: in vivo, po
# LoVo = assay: Antitumor activity against human LoVo cells xenografted in female BALB/c nude mouse assessed as tumor growth inhibition at 60 mg/kg, IG administered once daily for 27 days; assay type: functional; conditions: po, 648 h, time 27 day, read-out: TGI
# A-427 [10] = assay: Induction of apoptosis in human A-427 cells assessed as early apoptotic cells at 200 nM measured for 48 hrs by Annexin V/PI double staining based flow cytometry analysis (reference value: 1.96%); assay type: functional
# A-427 [11] = assay: Induction of apoptosis in human A-427 cells assessed as viable cells at 400 nM measured for 48 hrs by Annexin V/PI double staining based flow cytometry analysis (reference value: 97.7%); assay type: functional; conditions: read-out: Activity
# A-427 [12] = assay: Induction of cell cycle arrest in human A-427 cells assessed as accumulation of cells at G0/G1 phase at 50 nM measured for 48 hrs by flow cytometry analysis (reference value: 49.5%); assay type: functional
# A-427 [13] = assay: Induction of apoptosis in human A-427 cells assessed as late apoptotic cells at 800 nM measured for 48 hrs by Annexin V/PI double staining based flow cytometry analysis (reference value: 0.21%); assay type: functional
# Wee1-like protein kinase [14] = molecular target: T1, Wee1-like protein kinase; assay: Inhibition of Wee1 (unknown origin) at 1 uM relative to control
# Target sequence in this assay (P30291 whole entry, looked up, the tested form may be a part): as the sequence (P30291 whole entry, the tested form may be a part) above
# A-427 [15] = assay: Induction of cell cycle arrest in human A-427 cells assessed as accumulation of cells at S phase at 50 nM measured for 48 hrs by flow cytometry analysis (reference value: 4 %); assay type: functional
# A-427 [16] = assay: Induction of cell cycle arrest in human A-427 cells assessed as accumulation of cells at G2/M phase at 400 nM measured for 48 hrs by flow cytometry analysis (reference value: 10.9 %); assay type: functional
# A-427 [17] = assay: Induction of cell cycle arrest in human A-427 cells assessed as accumulation of cells at G2/M phase at 100 nM measured for 48 hrs by flow cytometry analysis (reference value: 10.9 %); assay type: functional
# [18] = Volume of distribution in ICR mouse at 1 mg/kg, iv measured upto 24 hrs by LC-MS/MS analysis; assay type: ADME, organism-based; conditions: in vivo
# A-427 [19] = assay: Induction of apoptosis in human A-427 cells assessed as necrotic cells at 200 nM measured for 48 hrs by Annexin V/PI double staining based flow cytometry analysis (reference value: 0.098%); assay type: functional
# A-427 [20] = assay: Induction of cell cycle arrest in human A-427 cells assessed as accumulation of cells at G0/G1 phase at 100 nM measured for 48 hrs by flow cytometry analysis (reference value: 49.5%); assay type: functional
# A-427 [21] = assay: Induction of apoptosis in human A-427 cells assessed as necrotic cells at 400 nM measured for 48 hrs by Annexin V/PI double staining based flow cytometry analysis (reference value: 0.098%); assay type: functional
# A-427 [22] = assay: Induction of apoptosis in human A-427 cells assessed as early apoptotic cells at 800 nM measured for 48 hrs by Annexin V/PI double staining based flow cytometry analysis (reference value: 1.96%); assay type: functional
# [23] = Acute toxicity in female C57 mouse assessed as reduction in body weight at 2000 mg/kg, IG measured for 14 days; assay type: organism-based; conditions: in vivo, po, 336 h, time 14 day
# [24] = Half life in ICR mouse at 1 mg/kg, iv measured upto 24 hrs by LC-MS/MS analysis; assay type: ADME, organism-based; conditions: in vivo
# [25] = Metabolic stability in human liver microsome assessed as parent compound remaining measured at 60 mins by LCMS/MS analysis; assay type: ADME; conditions: liver microsomes, read-out: Stability
# A-427 [26] = assay: Induction of cell cycle arrest in human A-427 cells assessed as accumulation of cells at G2/M phase at 200 nM measured for 48 hrs by flow cytometry analysis (reference value: 10.9 %); assay type: functional
# A-427 [27] = assay: Induction of apoptosis in human A-427 cells assessed as viable cells at 800 nM measured for 48 hrs by Annexin V/PI double staining based flow cytometry analysis (reference value: 97.7%); assay type: functional; conditions: read-out: Activity
# [28] = Metabolic stability in mouse liver microsome assessed as parent compound remaining measured at 60 mins by LCMS/MS analysis; assay type: ADME; conditions: liver microsomes, read-out: Stability
# [29] = AUC (0 to 24 hrs) in ICR mouse at 60 mg/kg, IG measured upto 24 hrs by LC-MS/MS analysis; assay type: ADME, organism-based; conditions: in vivo, po
structure (smiles),measurement,setting,value
C=CCn1c(=O)c2cnc(Nc3ccc(N4CCN(C)CC4)cc3)nc2n1-c1cccc(-c2cnccn2)n1,Activity,A-427 [1],31.3%
same,Activity,A-427 [2],59.1%
same,Activity,A-427 [3],25.6%
same,IC50,Wee1-like protein kinase [4],2.1 nM
same,IC50,A-427 [5],84 nM
same,Activity,A-427 [6],59.1%
same,Activity,A-427 [7],6.57%
same,Activity,A-427 [8],48.5%
same,bioavailability,[9],61.5%
same,inhibition in vivo at 60 mg/kg,LoVo,88%
same,Activity,A-427 [10],9.02%
same,viability at 0.4 µM,A-427 [11],58.3%
same,Activity,A-427 [12],40.9%
same,Activity,A-427 [13],35.4%
same,inhibition,Wee1-like protein kinase [14],111%
same,Activity,A-427 [15],46.7%
same,Activity,A-427 [16],9.32%
same,Activity,A-427 [17],7.09%
same,Vd,[18],11.3 L/kg
same,Activity,A-427 [19],4.82%
same,Activity,A-427 [20],41.4%
same,Activity,A-427 [21],2.33%
same,Activity,A-427 [22],10.1%
same,Activity,[23],Non-Toxic
same,half-life,[24],1.06 h
same,remaining at 1 h,[25],58.5%
same,Activity,A-427 [26],6.58%
same,viability at 0.8 µM,A-427 [27],50.9%
same,remaining at 1 h,[28],33.9%
same,AUC(0-t) at 24 h,[29],4340 ng·h/mL
